Test results: US6620831B2, “Indazoles substituted with 1,1-dioxoisothiazolidine useful as inhibitors of cell proliferation” (LG Life Sciences Ltd., priority 2000, dated 2003)

Biological target: T1, CDK2/cyclin A (Homo sapiens, UniProt P24941)
T1 construct: made in house; host or cells: insect ('worm') cells co-infected with baculoviruses
Test: CDK2 inhibitory activity (CDK2/cyclin A, [gamma-32P] ATP, histon H1 or Rb protein substrate)
Format: biochemical
Conditions: first IC50 column (c1) of Table 1
Text: CDK2 enzyme was obtained from either extract from the worm cell co-infected with baculovirus which expresses a CDK2 gene and baculovirus which expresses a cyclin A gene, or active enzyme purified therefrom. CDK4 was also obtained from either extract from the worm cell co-infected with baculovirus which expresses a CDK4 gene and baculovirus which expresses a cyclin D1 gene. As substrates, histon H1 or Rb protein was used for CDK2, and Rb protein for CDK4. The radioactive activities in substrates were determined by reacting compounds diluted with each concentration with a proper quantity of CDK2/cyclin A or CDK4/cyclin D1 and substrate protein, and [gamma-32P labeled] ATP, and then separating the substrates.
Inhibitory abilities of inhibitors according to the present invention for each enzyme activity were expressed as IC50 values, which were determined in accordance with the method as described above.

IC50 [nM] | Structure (SMILES)
< 50 | CCOc1cccc(CC(=O)Nc2n[nH]c3ccc(N4CCCS4(=O)=O)cc23)c1 [Compound 78, N-[5-(1,1-dioxo-1λ^6-isothiazolidin-2-yl)-1H-indazol-3-yl]-2-(3-ethoxyphenyl)acetamide]
< 1000 | CCOc1ccc(CC(=O)Nc2n[nH]c3ccc(N4CCCS4(=O)=O)cc23)cc1S(=O)(=O)N1CCOCC1 [Compound 79, N-[5-(1,1-dioxo-1λ^6-isothiazolidin-2-yl)-1H-indazol-3-yl]-2-[4-ethoxy-3-(4-morpholinylsulfonyl)phenyl]acetamide]
< 1000 | CCOc1ccc(CC(=O)Nc2n[nH]c3ccc(N4CCCS4(=O)=O)cc23)cc1S(N)(=O)=O [Compound 80, 2-[3-(aminosulfonyl)-4-ethoxyphenyl]-N-[5-(1,1-dioxo-1λ^6-isothiazolidin-2-yl)-1H-indazol-3-yl]acetamide]
< 1000 | CCOc1ccc(CC(=O)Nc2n[nH]c3ccc(N4CCCS4(=O)=O)cc23)cc1S(=O)(=O)N1CCN(C)CC1 [Compound 81, N-[5-(1,1-dioxo-1λ^6-isothiazolidin-2-yl)-1H-indazol-3-yl]-2-4-ethoxy-3-[(4-methyl-1-piperazinyl)sulfonyl]phenylacetamide]
< 1000 | NCCOc1ccc(CC(=O)Nc2n[nH]c3ccc(N4CCCS4(=O)=O)cc23)cc1 [Compound 82, 2-[4-(2-aminoethoxy)phenyl]-N-[5-(1,1-dioxo-1λ^6-isothiazolidin-2-yl)-1H-indazol-3-yl]acetamide]
